According to patent US20210269434A1, “TRICYCLIC COMPOUNDS AS INHIBITORS OF KRAS” (Incyte Corporation, priority 2020, published 2021):

Legend:
KRAS G12C = KRAS G12C (Homo sapiens, UniProt P01116, G12C); experiment: GDP-GTP exchange assay (KRAS_G12C exchange); type: biochemical; details: bodipy-GDP loaded KRAS G12C 2.5 nM, SOS1 150 nM, GppNHp; 2 hours pre-incubation, 2 hours reaction; read-out: G12C_exchange
Outline: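 Fluorescence exchange of bodipy-GDP for GppNHp, SOS1-driven, read at 485/520 nm; IC50 from four-parameter variable-slope fit. Both mutants used 2.5 nM final labelled protein and a 2 h compound pre-incubation. G12C reaction had 500 uM GppNHp and 150 nM SOS1 for 2 h; G12D ran 4 h.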

[1] = system: MIA PaCa-2 (KRAS G12C) cells; experiment: Cellular pERK HTRF assay (KRAS_G12C pERK); type: cell-based, human; details: Homo sapiens, MIA PaCa-2, 4 hours incubation, read-out: G12C_pERK
Outline: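 Phospho-ERK1/2 HTRF readout (665 and 620 nm) in lysed MIA PaCa-2 cells, antibodies incubated overnight at room temperature. Cells seeded the day before and treated with G12C compounds for 4 h at 37 °C; IC50 fitted to percent inhibition against log inhibitor concentration.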

Chain of KRAS G12C (P01116 1-188 isoform P01116-2 G12C): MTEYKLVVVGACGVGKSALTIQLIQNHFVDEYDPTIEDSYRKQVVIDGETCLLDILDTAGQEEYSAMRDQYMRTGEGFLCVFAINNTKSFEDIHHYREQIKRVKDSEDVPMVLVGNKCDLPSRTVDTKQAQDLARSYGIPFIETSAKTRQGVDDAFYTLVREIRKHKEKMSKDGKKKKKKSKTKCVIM

Compound	IC50 (KRAS G12C) [nM]	IC50 [1] [nM]
COc1c(C)cccc1-c1c(C(F)(F)F)cc2c(nc(N3CC(C)(N(C)C)C3)c3nnn([C@H]4CCN(C(=O)/C=C/CN(C)C)[C@H](CC#N)C4)c32)c1F [Example 246, 2-((2S,4S)-4-(7-(2-methoxy-3-methylphenyl)-4-(3-(dimethylamino)-3-methylazetidin-1-yl)-6-fluoro-8-(trifluoromethyl)-1H-[1,2,3]triazolo[4,5-c]quinolin-1-yl)-1-((E)-4-(dimethylamino)but-2-enoyl)piperidin-2-yl)acetonitrile]	≤ 100	≤ 100
C=CC(=O)N1CC[C@H](n2nnc3c(N4CC(N(C)C)C4)nc4c(F)c(-c5cccc(C)c5Cl)c(C)cc4c32)C[C@H]1CC#N [Example 247, 2-((2S,4S)-1-acryloyl-4-(7-(2-chloro-3-methylphenyl)-4-(3-(dimethylamino)azetidin-1-yl)-6-fluoro-8-methyl-1H-[1,2,3]triazolo[4,5-c]quinolin-1-yl)piperidin-2-yl)acetonitrile]	≤ 100	≤ 100
Cc1cccc(-c2c(C)cc3c(nc(N4CC(N(C)C)C4)c4nnn([C@H]5CCN(C(=O)/C=C/CF)[C@H](CC#N)C5)c43)c2F)c1Cl [Example 248, 2-((2S,4S)-4-(7-(2-chloro-3-methylphenyl)-4-(3-(dimethylamino)azetidin-1-yl)-6-fluoro-8-methyl-1H-[1,2,3]triazolo[4,5-c]quinolin-1-yl)-1-((E)-4-fluorobut-2-enoyl)piperidin-2-yl)acetonitrile]	≤ 100	≤ 100
Cc1cccc(-c2c(C)cc3c(nc(N4CC(N(C)C)C4)c4nnn([C@H]5CCN(C(=O)/C=C/CN(C)C)[C@H](CC#N)C5)c43)c2F)c1Cl [Example 249, 2-((2S,4S)-4-(7-(2-chloro-3-methylphenyl)-4-(3-(dimethylamino)azetidin-1-yl)-6-fluoro-8-methyl-1H-[1,2,3]triazolo[4,5-c]quinolin-1-yl)-1-((E)-4-(dimethylamino)but-2-enoyl)piperidin-2-yl)acetonitrile]	≤ 100	≤ 100
CC#CC(=O)N1CC[C@H](n2nnc3c(N4CC(N(C)C)C4)nc4c(F)c(-c5cccc(C)c5Cl)c(C)cc4c32)C[C@H]1CC#N [Example 250, 2-((2S,4S)-1-(but-2-ynoyl)-4-(7-(2-chloro-3-methylphenyl)-4-(3-(dimethylamino)azetidin-1-yl)-6-fluoro-8-methyl-1H-[1,2,3]triazolo[4,5-c]quinolin-1-yl)piperidin-2-yl)acetonitrile]	≤ 100	≤ 100
C=CC(=O)N1CC[C@H](n2nnc3c(OC[C@@H]4CCCN4C)nc4c(F)c(-c5cccc(C)c5Cl)c(C)cc4c32)C[C@H]1CC#N [Example 251, 2-((2S,4S)-1-acryloyl-4-(7-(2-chloro-3-methylphenyl)-6-fluoro-8-methyl-4-(((S)-1-methylpyrrolidin-2-yl)methoxy)-1H-[1,2,3]triazolo[4,5-c]quinolin-1-yl)piperidin-2-yl)acetonitrile]	≤ 100	≤ 100
Cc1cccc(-c2c(C)cc3c(nc(-n4ccnc4C)c4nnn([C@H]5CCN(C(=O)/C=C/CN(C)C)[C@H](CC#N)C5)c43)c2F)c1Cl [Example 252, 2-((2S,4S)-4-(7-(2-chloro-3-methylphenyl)-6-fluoro-8-methyl-4-(2-methyl-1H-imidazol-1-yl)-1H-[1,2,3]triazolo[4,5-c]quinolin-1-yl)-1-((E)-4-(dimethylamino)but-2-enoyl)piperidin-2-yl)acetonitrile]	≤ 100	≤ 100
Cc1cccc(-c2c(C)cc3c(nc(OC[C@@H]4CCCN4C)c4nnn([C@H]5CCN(C(=O)/C=C/CF)[C@H](CC#N)C5)c43)c2F)c1Cl [Example 253, 2-((2S,4S)-4-(7-(2-chloro-3-methylphenyl)-6-fluoro-8-methyl-4-(((S)-1-methylpyrrolidin-2-yl)methoxy)-1H-[1,2,3]triazolo[4,5-c]quinolin-1-yl)-1-((E)-4-fluorobut-2-enoyl)piperidin-2-yl)acetonitrile]	≤ 100	≤ 100
CC#CC(=O)N1CC[C@H](n2nnc3c(OC[C@@H]4CCCN4C)nc4c(F)c(-c5cccc(C)c5Cl)c(C)cc4c32)C[C@H]1CC#N [Example 254, 2-((2S,4S)-1-(but-2-ynoyl)-4-(7-(2-chloro-3-methylphenyl)-6-fluoro-8-methyl-4-(((S)-1-methylpyrrolidin-2-yl)methoxy)-1H-[1,2,3]triazolo[4,5-c]quinolin-1-yl)piperidin-2-yl)acetonitrile]	≤ 100	≤ 100
C=CC(=O)N1CC[C@H](n2nnc3c(N4CC(C)(N(C)C)C4)nc4c(F)c(-c5cccc(C)c5Cl)c(C)cc4c32)C[C@H]1CC#N [Example 255, 2-((2S,4S)-1-acryloyl-4-(7-(2-chloro-3-methylphenyl)-4-(3-(dimethylamino)-3-methylazetidin-1-yl)-6-fluoro-8-methyl-1H-[1,2,3]triazolo[4,5-c]quinolin-1-yl)piperidin-2-yl)acetonitrile]	≤ 100	≤ 100
Cc1cccc(-c2c(C)cc3c(nc(N4CC(C)(N(C)C)C4)c4nnn([C@H]5CCN(C(=O)/C=C/CF)[C@H](CC#N)C5)c43)c2F)c1Cl [Example 256, 2-((2S,4S)-4-(7-(2-chloro-3-methylphenyl)-4-(3-(dimethylamino)-3-methylazetidin-1-yl)-6-fluoro-8-methyl-1H-[1,2,3]triazolo[4,5-c]quinolin-1-yl)-1-((E)-4-fluorobut-2-enoyl)piperidin-2-yl)acetonitrile]	≤ 100	≤ 100
Cc1cccc(-c2c(C)cc3c(nc(N4CC(C)(N(C)C)C4)c4nnn([C@H]5CCN(C(=O)/C=C/CN(C)C)[C@H](CC#N)C5)c43)c2F)c1Cl [Example 257, 2-((2S,4S)-4-(7-(2-chloro-3-methylphenyl)-4-(3-(dimethylamino)-3-methylazetidin-1-yl)-6-fluoro-8-methyl-1H-[1,2,3]triazolo[4,5-c]quinolin-1-yl)-1-((E)-4-(dimethylamino)but-2-enoyl)piperidin-2-yl)acetonitrile]	≤ 100	≤ 100
CC#CC(=O)N1CC[C@H](n2nnc3c(N4CC(C)(N(C)C)C4)nc4c(F)c(-c5cccc(C)c5Cl)c(C)cc4c32)C[C@H]1CC#N [Example 258, 2-((2S,4S)-1-(but-2-ynoyl)-4-(7-(2-chloro-3-methylphenyl)-4-(3-(dimethylamino)-3-methylazetidin-1-yl)-6-fluoro-8-methyl-1H-[1,2,3]triazolo[4,5-c]quinolin-1-yl)piperidin-2-yl)acetonitrile]	≤ 100	≤ 100
C=CC(=O)N1CC[C@H](n2nnc3c(N4CCOCC4=O)nc4c(F)c(-c5cccc(C)c5Cl)c(C)cc4c32)C[C@H]1CC#N [Example 259, 2-((2S,4S)-1-acryloyl-4-(7-(2-chloro-3-methylphenyl)-6-fluoro-8-methyl-4-(3-oxomorpholino)-1H-[1,2,3]triazolo[4,5-c]quinolin-1-yl)piperidin-2-yl)acetonitrile]	≤ 100	≤ 100
CC#CC(=O)N1CC[C@H](n2nnc3c(N4CCOCC4=O)nc4c(F)c(-c5cccc(C)c5Cl)c(C)cc4c32)C[C@H]1CC#N [Example 260, 2-((2S,4S)-1-(but-2-ynoyl)-4-(7-(2-chloro-3-methylphenyl)-6-fluoro-8-methyl-4-(3-oxomorpholino)-1H-[1,2,3]triazolo[4,5-c]quinolin-1-yl)piperidin-2-yl)acetonitrile]	≤ 100	≤ 100
Cc1cccc(-c2c(C)cc3c(nc(N4CCOCC4=O)c4nnn([C@H]5CCN(C(=O)/C=C/CF)[C@H](CC#N)C5)c43)c2F)c1Cl [Example 261, 2-((2S,4S)-4-(7-(2-chloro-3-methylphenyl)-6-fluoro-8-methyl-4-(3-oxomorpholino)-1H-[1,2,3]triazolo[4,5-c]quinolin-1-yl)-1-((E)-4-fluorobut-2-enoyl)piperidin-2-yl)acetonitrile]	≤ 100	≤ 100
Cc1cccc(-c2c(Cl)cc3c(nc(N4CC(N(C)C)C4)c4ncn([C@H]5CCN(C(=O)/C=C/CN(C)C)[C@H](CC#N)C5)c43)c2F)c1C(F)(F)F [Example 262, 2-((2S,4S)-4-(8-chloro-4-(3-(dimethylamino)azetidin-1-yl)-6-fluoro-7-(3-methyl-2-(trifluoromethyl)phenyl)-1H-imidazo[4,5-c]quinolin-1-yl)-1-((E)-4-(dimethylamino)but-2-enoyl)piperidin-2-yl)acetonitrile]	≤ 100	≤ 100
CC#CC(=O)N1CC[C@H](n2cnc3c(N4CC(N(C)C)C4)nc4c(F)c(-c5cccc(C)c5C(F)(F)F)c(Cl)cc4c32)C[C@H]1CC#N [Example 263, 2-((2S,4S)-1-(but-2-ynoyl)-4-(8-chloro-4-(3-(dimethylamino)azetidin-1-yl)-6-fluoro-7-(3-methyl-2-(trifluoromethyl)phenyl)-1H-imidazo[4,5-c]quinolin-1-yl)piperidin-2-yl)acetonitrile]	≤ 100	≤ 100
C=CC(=O)N1CC[C@H](n2cnc3c(N4CC(N(C)C)C4)nc4c(F)c(-c5cccc(C)c5C(F)(F)F)c(Cl)cc4c32)C[C@H]1CC#N [Example 264, 2-((2S,4S)-1-acryloyl-4-(8-chloro-4-(3-(dimethylamino)azetidin-1-yl)-6-fluoro-7-(3-methyl-2-(trifluoromethyl)phenyl)-1H-imidazo[4,5-c]quinolin-1-yl)piperidin-2-yl)acetonitrile]	≤ 100	≤ 100
